Experiments:
[1] = tested on: estrogen receptor (ER)-dependent promoter; test: Invitrogen SelectScreen Profiling Service, ER-mediated transcription; format: cell-based; conditions: read-out: ED50, ER-mediated transcription
phospho-ERK = test: Immunoblot of phospho-ERK accumulation in MCF7 cells; format: cell-based; conditions: 10 nM, about 15 minutes
Protocol: FIG. 9 illustrates that E2-HPY(530) treatment leads to the accumulation of phospho-ERK in MCF7 breast cancer cells. […] After about a 15 minute treatment, protein lysates were isolated for immunoblot analysis. The upper panel of […] was probed with pERK1/2 mAb (1:600, Santa Cruz Biotechnology) overnight at about 4° C. Lower panel was obtained after stripping the membrane and probing (1:3000) with Actin mAb overnight at about 4° C. Primary antibodies were visualized with horseradish peroxidase conjugated secondary antibodies.
FIG. 9 illustrates that E2-HPY(530) treatment leads to the accumulation of phospho-ERK in MCF7 breast cancer cells. […] Primary antibody raised against P-ERK was used to visualize p-ERK levels. Actin expression determined by Actin specific mAb was used as a loading control.

[2] = target: T1, human kinesin Eg5 motor protein (Homo sapiens, UniProt P52732); test: Monopolar spindle formation in HeLa cells treated with MSTLC probes (fixed, tubulin/DNA staining); format: cell-based; conditions: read-out: EC50, monopolar spindles / block of bipolar spindle
T1 construct: endogenous in cells; host or cells: HeLa cells
T1 sequence (P52732 1-1056): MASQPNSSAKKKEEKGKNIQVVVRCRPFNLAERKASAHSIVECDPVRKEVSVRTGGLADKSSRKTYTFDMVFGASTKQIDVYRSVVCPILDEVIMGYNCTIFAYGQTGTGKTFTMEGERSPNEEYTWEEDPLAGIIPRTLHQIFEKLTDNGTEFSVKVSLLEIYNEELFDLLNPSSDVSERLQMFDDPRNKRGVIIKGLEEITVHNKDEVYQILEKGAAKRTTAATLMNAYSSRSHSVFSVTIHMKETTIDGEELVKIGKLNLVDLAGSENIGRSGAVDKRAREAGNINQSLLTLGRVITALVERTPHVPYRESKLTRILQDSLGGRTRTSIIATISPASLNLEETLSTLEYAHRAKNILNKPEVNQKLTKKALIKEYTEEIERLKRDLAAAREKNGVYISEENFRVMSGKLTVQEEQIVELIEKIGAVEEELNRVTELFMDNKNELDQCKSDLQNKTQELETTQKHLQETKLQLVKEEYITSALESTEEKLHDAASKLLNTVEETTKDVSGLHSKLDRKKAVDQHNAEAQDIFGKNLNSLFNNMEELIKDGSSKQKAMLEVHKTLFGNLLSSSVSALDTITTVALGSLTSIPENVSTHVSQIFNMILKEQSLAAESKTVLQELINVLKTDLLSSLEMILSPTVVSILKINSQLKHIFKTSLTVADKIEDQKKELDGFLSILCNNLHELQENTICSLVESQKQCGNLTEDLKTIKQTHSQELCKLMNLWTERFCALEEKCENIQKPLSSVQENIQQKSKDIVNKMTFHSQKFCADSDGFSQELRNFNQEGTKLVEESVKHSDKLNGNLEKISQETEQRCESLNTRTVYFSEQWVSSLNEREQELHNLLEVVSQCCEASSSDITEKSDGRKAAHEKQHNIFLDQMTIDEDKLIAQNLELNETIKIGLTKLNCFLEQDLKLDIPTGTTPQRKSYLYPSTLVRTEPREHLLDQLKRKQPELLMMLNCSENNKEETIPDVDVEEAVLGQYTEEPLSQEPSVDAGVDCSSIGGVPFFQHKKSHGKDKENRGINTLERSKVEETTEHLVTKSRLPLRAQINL
Protocol: The inhibitory activity of human kinesin Eg5 motor protein was tested using probes 3.3, 3.5 and 413. HeLa cells were treated with 10 μM of each probe, as well as the unconjugated inhibitor Methoxy-S-Trityl-L-cysteine. Then cells were incubated with anti-α tubulin 1:1000 primary antibody, AlexaFluor-546 conjugated rabbit anti-mouse secondary antibody and Hoechst 33342 for staining microtubules and DNA respectively. Cells were subsequently washed and mounted onto glass sides with 90% glycerol and imaged using a Zeiss Axiovert 200M inverted microscope outfitted with epifluorescence optics, and a Zeiss Apotome structured illumination module.

HeLa cells = test: Live imaging of HeLa cells treated with MSTLC probes; format: cell-based; conditions: mitotic HeLa cells
[3] = Octanol/water partition coefficient (Log Po/w); format: physicochemical

Row | EC50 [1] [nM] | EC50 [2] [nM] | logP [3] | SMILES | accumulation of phospho-ERK (phospho-ERK) | spindle phenotype (HeLa cells)
1 | 0.11 |  |  | C[C@]12CC[C@@H]3c4ccc(O)cc4CC[C@H]3[C@@H]1CC[C@@H]2O [E2, 17-β-estradiol] | resulted in the accumulation of phospho-ERK | 
2 |  | ~1130 |  | COc1ccc(C(SC[C@H](N)C(=O)NCCC#CC2=CN3C(=N[N+](=C(C)C)[B-]3(F)F)C=C2)(c2ccccc2)c2ccccc2)cc1 [3.3] |  | formed monopolar spindles
3 |  | ~1030 |  | COc1ccc(C(SC[C@H](N)C(=O)NCCC#CC2=CN3C(=N[N+](=C(C)C)[B-]3(OC)OC)C=C2)(c2ccccc2)c2ccccc2)cc1 [3.5] |  | formed monopolar spindles
4 |  |  | 0.79 | F[B-]1(F)N2C=C(I)C=CC2=N[N+]1=C1c2ccccc2-c2ccccc21 [HPY(530)-Iodide, 2-(9H-fluoren-9-ylidene)-3,3-difluoro-6-iodo-2,3-dihydro-[1,2,4,3]triazaborolo[4,5-a]pyridin-2-ium-3-uide] |  | 
